Measurements: patent US9409966B2, “Glucagon-like peptide-1 derivatives and their pharmaceutical use” (priority 2007, dated 2016)
*1 amine or outer side, *2 acyl side, *3 side chain or, on linkers, in order; H or OH if unused. Where a SMILES comes first, the peptide text is derived from it. Side-chain parts run from the residue outwards. [ ]: non-standard residue; d: D form. The star is where a group is joined. C20 diacid = O=C(O)CCCCCCCCCCCCCCCCCCC(=O)*; C18 diacid = O=C(O)CCCCCCCCCCCCCCCCC(=O)*; γGlu = O=C(O)[C@H](CCC(=O)[*:2])N[*:1]; Desaminohistidyl = O=C(CCc1c[nH]cn1)*; Trx = NC[C@H]1CC[C@H](C(=O)O)CC1; NTA = O=C(O)CN(CC(=O)O)CC(=O)*; Dap = NC[C@H](N)C(=O)O; AEEA = NCCOCCOCC(=O)O; Aib = CC(C)(N)C(=O)O

target: human serum albumin (HSA) (Homo sapiens, UniProt P02768); test: Albumin binding affinity, competition scintillation proximity assay (SPA); settings: not given
Sequence (P02768 25-609): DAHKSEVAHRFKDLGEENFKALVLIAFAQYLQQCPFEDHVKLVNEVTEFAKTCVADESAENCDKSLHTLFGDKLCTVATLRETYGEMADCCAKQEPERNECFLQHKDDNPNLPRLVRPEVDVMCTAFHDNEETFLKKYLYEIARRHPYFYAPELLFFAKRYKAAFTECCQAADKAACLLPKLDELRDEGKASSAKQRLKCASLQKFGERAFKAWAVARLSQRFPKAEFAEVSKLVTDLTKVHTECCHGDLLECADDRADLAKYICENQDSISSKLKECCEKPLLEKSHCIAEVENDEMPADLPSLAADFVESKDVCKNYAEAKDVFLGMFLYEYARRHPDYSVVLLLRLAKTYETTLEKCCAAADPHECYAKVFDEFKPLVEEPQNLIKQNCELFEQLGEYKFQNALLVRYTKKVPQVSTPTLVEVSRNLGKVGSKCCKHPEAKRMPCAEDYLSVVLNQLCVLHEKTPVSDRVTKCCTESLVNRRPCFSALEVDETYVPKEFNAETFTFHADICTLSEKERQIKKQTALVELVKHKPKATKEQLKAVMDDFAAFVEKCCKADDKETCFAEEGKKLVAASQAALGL

EC50 | Compound
400 to 800 nM | CC[C@H](C)[C@H](NC(=O)[C@H](Cc1ccccc1)NC(=O)[C@H](CCC(=O)O)NC(=O)[C@H](CCCNC(=N)N)NC(=O)[C@H](C)NC(=O)[C@H](C)NC(=O)[C@H](CCC(N)=O)NC(=O)[C@H](CCC(=O)O)NC(=O)[C@H](CCC(=O)O)NC(=O)[C@H](CC(C)C)NC(=O)[C@H](Cc1ccc(O)cc1)NC(=O)[C@H](CO)NC(=O)[C@H](CO)NC(=O)[C@@H](NC(=O)[C@H](CC(=O)O)NC(=O)[C@H](CO)NC(=O)[C@@H](NC(=O)[C@H](Cc1ccccc1)NC(=O)[C@@H](NC(=O)CNC(=O)[C@H](CCC(=O)O)NC(=O)[C@H](C)NC(=O)CCc1c[nH]cn1)[C@@H](C)O)[C@@H](C)O)C(C)C)C(=O)N[C@@H](C)C(=O)N[C@@H](Cc1c[nH]c2ccccc12)C(=O)N[C@@H](CC(C)C)C(=O)N[C@H](C(=O)N[C@@H](CCCNC(=N)N)C(=O)NCC(=O)N[C@@H](CCCNC(=N)N)C(=O)N[C@@H](CCCCNC(=O)COCCOCCNC(=O)COCCOCCNC(=O)C[C@@H](NC(=O)C1CCN(C(=O)CCCCCCCCCCCCCCCCCCC(=O)O)CC1)C(=O)O)C(N)=O)C(C)C [Example 1, N-epsilon37{2-[2-(2-{2-[2-((R)-3-carboxy-3-{[1-(19-carboxynonadecanoyl)piperidine-4-carbonyl]amino}propionylamino)ethoxy]ethoxy}acetylamino)ethoxy]ethoxy}acetyl [desaminoHis7,Glu22,Arg26,Arg34,Lys37]GLP-1(7-37)amide]
150 to 200 nM | CC[C@H](C)[C@H](NC(=O)[C@H](Cc1ccccc1)NC(=O)[C@H](CCC(=O)O)NC(=O)[C@H](CCCNC(=N)N)NC(=O)[C@@H](NC(=O)[C@H](C)NC(=O)[C@H](CCC(N)=O)NC(=O)[C@H](CCC(=O)O)NC(=O)[C@H](CCC(=O)O)NC(=O)[C@H](CC(C)C)NC(=O)[C@H](Cc1ccc(O)cc1)NC(=O)[C@H](CO)NC(=O)[C@H](CO)NC(=O)[C@@H](NC(=O)[C@H](CC(=O)O)NC(=O)[C@H](CO)NC(=O)[C@@H](NC(=O)[C@H](Cc1ccccc1)NC(=O)[C@@H](NC(=O)CNC(=O)[C@H](CCC(=O)O)NC(=O)C(C)(C)NC(=O)[C@@H](N)Cc1c[nH]cn1)[C@@H](C)O)[C@@H](C)O)C(C)C)C(C)C)C(=O)N[C@@H](C)C(=O)N[C@@H](CCCCNC(=O)COCCOCCNC(=O)COCCOCCNC(=O)CC[C@H](NC(=O)CCCCCCCCCCCCCCCCC(=O)O)C(=O)O)C(=O)N[C@@H](CC(C)C)C(=O)N[C@H](C(=O)N[C@@H](CNC(=O)CN(CC(=O)O)CC(=O)O)C(N)=O)C(C)C [Example 37, N-epsilon31-{2-(2-{2-[2-(2-{2-[4-Carboxy-4-(17-carboxy-heptadecanoylamino)butyrylamino]ethoxy}ethoxy)acetylamino]ethoxy}ethoxy)acetyl}-N-beta34-(2-(bis-carboxymethylamino)acetyl)[Aib8,Glu22,Val25,Arg26,Lys31, Dap34] GLP-1(7-34) amide] (H-H[Aib]EGTFTSDVSSYLEEQAVREFIAK([AEEA-AEEA-γGlu-C18 diacid])LV[Dap](NTA)-NH2)

target: T1, human GLP-1 receptor (Homo sapiens, UniProt P43220); test: Stimulation of cAMP formation in a cell line expressing the cloned human GLP-1 receptor; type: biochemical; settings: cAMP production, purified plasma membranes from BHK467-12A (tk-ts13), AlphaScreen cAMP Assay Kit; read-out: Potency [EC50/nM]
T1 construct: expressed in transfected cells; host or cells: BHK467-12A (tk-ts13) baby hamster kidney cells; purified plasma membranes
T1 sequence (P43220 24-463): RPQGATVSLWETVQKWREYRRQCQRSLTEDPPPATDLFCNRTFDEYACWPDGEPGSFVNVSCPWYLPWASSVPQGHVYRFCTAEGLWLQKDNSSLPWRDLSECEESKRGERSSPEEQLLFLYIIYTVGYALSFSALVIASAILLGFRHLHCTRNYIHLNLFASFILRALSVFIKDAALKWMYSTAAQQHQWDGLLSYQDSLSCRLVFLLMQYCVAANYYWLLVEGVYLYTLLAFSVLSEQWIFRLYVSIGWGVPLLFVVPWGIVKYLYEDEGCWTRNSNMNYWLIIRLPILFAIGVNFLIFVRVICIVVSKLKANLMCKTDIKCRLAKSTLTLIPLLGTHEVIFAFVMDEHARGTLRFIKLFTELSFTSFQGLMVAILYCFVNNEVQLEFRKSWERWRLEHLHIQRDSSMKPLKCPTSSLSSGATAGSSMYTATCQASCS

EC50 | Compound
0.37 nM | CC[C@H](C)[C@H](NC(=O)[C@H](Cc1ccccc1)NC(=O)[C@H](CCC(=O)O)NC(=O)[C@H](CCCNC(=N)N)NC(=O)[C@H](C)NC(=O)[C@H](C)NC(=O)[C@H](CCC(N)=O)NC(=O)[C@H](CCC(=O)O)NC(=O)[C@H](CCC(=O)O)NC(=O)[C@H](CC(C)C)NC(=O)[C@H](Cc1ccc(O)cc1)NC(=O)[C@H](CO)NC(=O)[C@H](CO)NC(=O)[C@@H](NC(=O)[C@H](CC(=O)O)NC(=O)[C@H](CO)NC(=O)[C@@H](NC(=O)[C@H](Cc1ccccc1)NC(=O)[C@@H](NC(=O)CNC(=O)[C@H](CCC(=O)O)NC(=O)[C@H](C)NC(=O)CCc1c[nH]cn1)[C@@H](C)O)[C@@H](C)O)C(C)C)C(=O)N[C@@H](C)C(=O)N[C@@H](Cc1c[nH]c2ccccc12)C(=O)N[C@@H](CC(C)C)C(=O)N[C@H](C(=O)N[C@@H](CCCNC(=N)N)C(=O)NCC(=O)N[C@@H](CCCNC(=N)N)C(=O)N[C@@H](CCCCNC(=O)COCCOCCNC(=O)COCCOCCNC(=O)C[C@@H](NC(=O)C1CCN(C(=O)CCCCCCCCCCCCCCCCCCC(=O)O)CC1)C(=O)O)C(N)=O)C(C)C [Example 1, N-epsilon37{2-[2-(2-{2-[2-((R)-3-carboxy-3-{[1-(19-carboxynonadecanoyl)piperidine-4-carbonyl]amino}propionylamino)ethoxy]ethoxy}acetylamino)ethoxy]ethoxy}acetyl [desaminoHis7,Glu22,Arg26,Arg34,Lys37]GLP-1(7-37)amide]
0.66 nM | CC[C@H](C)[C@H](NC(=O)[C@H](Cc1ccccc1)NC(=O)[C@H](CCC(=O)O)NC(=O)[C@H](CCCNC(=N)N)NC(=O)[C@H](C)NC(=O)[C@H](C)NC(=O)[C@H](CCC(N)=O)NC(=O)[C@H](CCC(=O)O)NC(=O)[C@H](CCC(=O)O)NC(=O)[C@H](CC(C)C)NC(=O)[C@H](Cc1ccc(O)cc1)NC(=O)[C@H](CO)NC(=O)[C@H](CO)NC(=O)[C@@H](NC(=O)[C@H](CC(=O)O)NC(=O)[C@H](CO)NC(=O)[C@@H](NC(=O)[C@H](Cc1ccccc1)NC(=O)[C@@H](NC(=O)CNC(=O)[C@H](CCC(=O)O)NC(=O)[C@H](C)NC(=O)CCc1c[nH]cn1)[C@@H](C)O)[C@@H](C)O)C(C)C)C(=O)N[C@@H](CCC(=O)O)C(=O)N[C@@H](Cc1c[nH]c2ccccc12)C(=O)N[C@@H](CC(C)C)C(=O)N[C@H](C(=O)N[C@@H](CCCNC(=N)N)C(=O)NCC(=O)N[C@@H](CCCNC(=N)N)C(=O)N[C@@H](CCCCNC(=O)COCCOCCNC(=O)COCCOCCNC(=O)CC[C@H](NC(=O)[C@H]1CC[C@H](CNC(=O)CCCCCCCCCCCCCCCCCCC(=O)O)CC1)C(=O)O)C(=O)O)C(C)C [Example 10, N-epsilon37-[2-(2-{2-[2-(2-{2-[(S)-4-Carboxy-4-({trans-4-[(19-carboxy-nonadecanoylamino)methyl]cyclohexanecarbonyl}amino)butyrylamino]ethoxy}ethoxy)acetylamino]ethoxy}ethoxy)acetyl][DesaminoHis7,Glu22,Arg26,Glu30,Arg34,Lys37]GLP-1-(7-37)] (Desaminohistidyl-AEGTFTSDVSSYLEEQAAREFIEWLVRGRK([AEEA-AEEA-γGlu-Trx-C20 diacid])-OH)
0.15 nM | CCCCCCCCCCCCCCCCOCCOCCOCCOCCOCCOCCC(=O)NCCCC[C@H](NC(=O)[C@H](CCCNC(=N)N)NC(=O)CNC(=O)[C@H](CCCNC(=N)N)NC(=O)[C@@H](NC(=O)[C@H](CC(C)C)NC(=O)[C@H](Cc1c[nH]c2ccccc12)NC(=O)[C@H](C)NC(=O)[C@@H](NC(=O)[C@H](Cc1ccccc1)NC(=O)[C@H](CCC(=O)O)NC(=O)[C@H](CCCNC(=N)N)NC(=O)[C@H](C)NC(=O)[C@H](C)NC(=O)[C@H](CCC(N)=O)NC(=O)[C@H](CCC(=O)O)NC(=O)[C@H](CCC(=O)O)NC(=O)[C@H](CC(C)C)NC(=O)[C@H](Cc1ccc(O)cc1)NC(=O)[C@H](CO)NC(=O)[C@H](CO)NC(=O)[C@@H](NC(=O)[C@H](CC(=O)O)NC(=O)[C@H](CO)NC(=O)[C@@H](NC(=O)[C@H](Cc1ccccc1)NC(=O)[C@@H](NC(=O)CNC(=O)[C@H](CCC(=O)O)NC(=O)[C@H](C)NC(=O)CCc1c[nH]cn1)[C@@H](C)O)[C@@H](C)O)C(C)C)[C@@H](C)CC)C(C)C)C(N)=O [Example 16, N-epsilon37 (3-((2-(2-(2-(2-(2-Hexadecyloxyethoxy)ethoxy)ethoxy)ethoxy)ethoxy))propionyl)[DesaminoHis7,Glu22,Arg26,Arg34,Lys37]GLP-1(7-37)-amide]
0.05 nM | CCCCCCCCCCCCCCCCCC(=O)NCCOCCOCC(=O)NCCOCCOCC(=O)NCCOCCOCC(=O)NCCCC[C@H](NC(=O)[C@H](CCCNC(=N)N)NC(=O)CNC(=O)[C@H](CCCNC(=N)N)NC(=O)[C@@H](NC(=O)[C@H](CC(C)C)NC(=O)[C@H](Cc1c[nH]c2ccccc12)NC(=O)[C@H](C)NC(=O)[C@@H](NC(=O)[C@H](Cc1ccccc1)NC(=O)[C@H](CCC(=O)O)NC(=O)[C@H](CCCNC(=N)N)NC(=O)[C@H](C)NC(=O)[C@H](C)NC(=O)[C@H](CCC(N)=O)NC(=O)[C@H](CCC(=O)O)NC(=O)[C@H](CCC(=O)O)NC(=O)[C@H](CC(C)C)NC(=O)[C@H](Cc1ccc(O)cc1)NC(=O)[C@H](CO)NC(=O)[C@H](CO)NC(=O)[C@@H](NC(=O)[C@H](CC(=O)O)NC(=O)[C@H](CO)NC(=O)[C@@H](NC(=O)[C@H](Cc1ccccc1)NC(=O)[C@@H](NC(=O)CNC(=O)[C@H](CCC(=O)O)NC(=O)[C@H](C)NC(=O)CCc1c[nH]cn1)[C@@H](C)O)[C@@H](C)O)C(C)C)[C@@H](C)CC)C(C)C)C(N)=O [Example 19, N-epsilon37-(2-(2-(2-(2-(2-(2-(2-(2-(2-(Octadecanoylamino)ethoxy)ethoxy)acetylamino)ethoxy)ethoxy)acetylamino)ethoxy)ethoxy)acetyl)[desaminoHis7,Glu22,Arg26,Arg34,Lys37] GLP-1 (7-37)amide]
0.25 nM | CC[C@H](C)[C@H](NC(=O)[C@H](Cc1ccccc1)NC(=O)[C@H](CCC(=O)O)NC(=O)[C@H](CCCNC(=N)N)NC(=O)[C@H](C)NC(=O)[C@H](C)NC(=O)[C@H](CCC(N)=O)NC(=O)[C@H](CCC(=O)O)NC(=O)[C@H](CCC(=O)O)NC(=O)[C@H](CC(C)C)NC(=O)[C@H](Cc1ccc(O)cc1)NC(=O)[C@H](CO)NC(=O)[C@H](CO)NC(=O)[C@@H](NC(=O)[C@H](CC(=O)O)NC(=O)[C@H](CO)NC(=O)[C@@H](NC(=O)[C@H](Cc1ccccc1)NC(=O)[C@@H](NC(=O)CNC(=O)[C@H](CCC(=O)O)NC(=O)[C@H](C)NC(=O)CCc1c[nH]cn1)[C@@H](C)O)[C@@H](C)O)C(C)C)C(=O)N[C@@H](C)C(=O)N[C@@H](Cc1c[nH]c2ccccc12)C(=O)N[C@@H](CC(C)C)C(=O)N[C@H](C(=O)N[C@@H](CCCNC(=N)N)C(=O)NCC(=O)N[C@@H](CCCNC(=N)N)C(=O)N[C@@H](CCCCNC(=O)COCCOCCNC(=O)CC[C@H](NC(=O)CC[C@H](NC(=O)CCCCCCCCCCCNC(=O)CCCS(=O)(=O)NC(=O)CCCCCCCCCCCCCCCc1nnn(C(C)(C)C)n1)C(=O)O)C(=O)O)C(=O)O)C(C)C [Example 26, N-epsilon37-{2-[2-(2-{(S)-4-[(S)-4-(12-{4-[16-(2-tert-Butyl-2H-tetrazol-5-yl)-hexadecanoylsulfamoyl]butyrylamino}dodecanoylamino)-4-carboxybutyrylamino]-4-carboxybutyrylamino}ethoxy)ethoxy]acetyl}[DesaminoHis7,Glu22,Arg26,Arg34,Lys37] GLP-1 (7-37)]
0.07 nM | CC[C@H](C)[C@H](NC(=O)[C@H](Cc1ccccc1)NC(=O)[C@H](CCC(=O)O)NC(=O)[C@H](CCCNC(=N)N)NC(=O)[C@H](C)NC(=O)[C@H](C)NC(=O)[C@H](CCC(N)=O)NC(=O)[C@H](CCC(=O)O)NC(=O)[C@H](CCC(=O)O)NC(=O)[C@H](CC(C)C)NC(=O)[C@H](Cc1ccc(O)cc1)NC(=O)[C@H](CO)NC(=O)[C@H](CO)NC(=O)[C@@H](NC(=O)[C@H](CC(=O)O)NC(=O)[C@H](CO)NC(=O)[C@@H](NC(=O)[C@H](Cc1ccccc1)NC(=O)[C@@H](NC(=O)CNC(=O)[C@H](CCC(=O)O)NC(=O)C(C)(C)NC(=O)[C@@H](N)Cc1c[nH]cn1)[C@@H](C)O)[C@@H](C)O)C(C)C)C(=O)N[C@@H](C)C(=O)N[C@@H](Cc1c[nH]c2ccccc12)C(=O)N[C@@H](CC(C)C)C(=O)N[C@H](C(=O)N[C@@H](CCCNC(=N)N)C(=O)NCC(=O)N[C@@H](CCCNC(=N)N)C(=O)N[C@@H](CCCCNC(=O)CC[C@H](NC(=O)COCCOCCNC(=O)COCCOCCNC(=O)CCCCCCCCCCCCCCCCC(=O)O)C(=O)O)C(=O)O)C(C)C [Example 38, N-epsilon-37-[(S)-4-carboxy-4-(2-{2-[2-(2-{2-[2-(17-carboxyheptadecanoylamino)ethoxy]ethoxy}acetylamino)ethoxy]ethoxy}acetylamino)butyryl] [Aib8,Glu22,Arg26,34,Lys37] GLP-1 (7-37)]
